In assay [1] the target is T1, hCRTH2 receptor (Homo sapiens (Human), UniProt Q9Y5Y4). Nature of the assay: hCRTH2 receptor membranes radioligand (3H-PGD2) displacement assay. The settings on record: 3H-PGD2 2.5 nM, HEK293-hCRTH2 membrane fragments, Binding-Buffer with 0.1% BSA. On the procedure: (§1) First, recombinant HEK293-hCRTH2 cells were detached from culture plates into 5 ml buffer A/plate (Buffer A: 5 mM Tris, 1 mM MgCl2-6H2O pH=7.4) using a rubber policeman. Cells were then transferred into centrifugation tubes and centrifuged for 5 min at 400 g. The cell pellet was resuspended in the same buffer and tubes were frozen at −80° C. Cells were thawed and membrane fragments were generated by homogenization using a polytron homogenizer (30 seconds). The membrane fragments were then centrifuged at 3000 g for 20 minutes and resuspended in buffer C (Buffer C: 75 mM Tris, 25 mM MgCl2, 250 mM Saccharose pH 7.4). Aliquots of membrane fragments were stored at −20° C.
(§2) Binding assay was performed in a final assay volume of 250 μl. First, 25 μl of test compound, previously diluted in Binding-Buffer (Binding-Buffer: 50 mM Tris-Base, 100 mM NaCl, 1 mM EDTA, 0.1% BSA (protease free), 0.01% NaN3, 10 mM MnCl2 pH 7.0) was placed into each well. After addition of 75 μl Binding-Buffer, 50 μl of the radioligand ^3H-PGD2 (at 2.5 nM (220.000 dpm/well) from ANAWA ART0662) was added to each well. Binding assay was started by addition of 100 μl CRTH2 membrane fragments, reaching a final concentration of 20 μg/well. For non-specific binding, PGD2 was added to the reaction mixture to […] final concentration. This assay mix was incubated for 90 minutes at room temperature and then filtered through a GF/C filter 96-well plate which was pre-soaked for 3 hours in 0.5% polyethyleneimine (PEI). The filter-wells were washed three times with ice cold Binding-Buffer. Then, 40 μl of Microscint-40 (Packard) was added to each well and the retained radioactivity quantified in a Topcount (Packard).

In assay [2] the target is T1, hCRTH2 receptor. Nature of the assay: Radioligand displacement assay in presence of human serum albumin (HSA). The conditions noted are these: 3H-PGD2 2.5 nM, HEK293-hCRTH2 membrane fragments, Binding-Buffer-HSA with 0.5% human serum albumin instead of 0.1% BSA. On the procedure:
as §1, §2
Radioligand displacement assay in presence of human serum albumin (HSA) was performed as described above, with following modifications. Binding-Buffer-HSA: Binding-buffer+0.5% Sigma Albumin from Human serum A1887 (instead of 0.1% BSA). A volume of 25 μl test compound, previously diluted in Binding-Buffer-HSA was placed into each well. After addition of 75 μl Binding-Buffer-HSA, 50 μl of ^3H-PGD2 (at 2.5 nM (220.000 dpm/well) from ANAWA ART0662) was added to each well. Remaining protocol was identical as described above.
A general note: In a radioligand displacement assay an active substance lowers the binding of a labelled ligand.

The IC50 is the concentration that gives 50% inhibition.

Where only a bound is given, the exact number is not on record here.

T1 sequence (Q9Y5Y4 whole entry, the tested form may be a part): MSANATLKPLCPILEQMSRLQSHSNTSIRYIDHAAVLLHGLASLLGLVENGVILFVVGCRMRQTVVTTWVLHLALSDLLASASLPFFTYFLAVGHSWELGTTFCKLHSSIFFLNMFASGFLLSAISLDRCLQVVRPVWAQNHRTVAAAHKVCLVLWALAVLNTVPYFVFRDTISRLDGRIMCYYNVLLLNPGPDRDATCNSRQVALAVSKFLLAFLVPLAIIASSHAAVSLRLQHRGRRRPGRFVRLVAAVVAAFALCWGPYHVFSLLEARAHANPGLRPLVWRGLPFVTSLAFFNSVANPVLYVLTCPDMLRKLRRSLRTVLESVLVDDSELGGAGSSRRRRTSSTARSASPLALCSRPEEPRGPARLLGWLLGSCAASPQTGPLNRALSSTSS

For the molecule `CN(c1ncc(Cl)cn1)C1CCc2c(CC(=O)O)c3ccccc3n2C1` (stereo not drawn) [Example 1, 2-(7-((5-chloropyrimidin-2-yl)(methyl)amino)-6,7,8,9-tetrahydropyrido[1,2-a]indol-10-yl)acetic acid], the IC50 at hCRTH2 receptor [1] was found to be 21 nM; at hCRTH2 receptor [2], 66 nM.
The corresponding values for `CN(c1ncc(F)cn1)C1CCc2c(CC(=O)O)c3ccccc3n2C1` (stereo not drawn) [Example 2, 2-(7-((5-fluoropyrimidin-2-yl)(methyl)amino)-6,7,8,9-tetrahydropyrido[1,2-a]indol-10-yl)acetic acid] are 9 nM and 29 nM.
For `CN(c1ncc(C(F)(F)F)cn1)C1CCc2c(CC(=O)O)c3ccccc3n2C1` (stereo not drawn) [Example 3, 2-(7-(methyl(5-(trifluoromethyl)pyrimidin-2-yl)amino)-6,7,8,9-tetrahydropyrido[1,2-a]indol-10-yl)acetic acid], in that order: 8 nM and 152 nM.
The corresponding values for `CN(c1nc2ccc(F)cc2s1)C1CCc2c(CC(=O)O)c3ccccc3n2C1` (stereo not drawn) [Example 4, 2-(7-((6-fluorobenzo[d]thiazol-2-yl)(methyl)amino)-6,7,8,9-tetrahydropyrido[1,2-a]indol-10-yl)acetic acid] are 9 nM and 43 nM.
For `CN(c1nc2cc(F)ccc2o1)C1CCc2c(CC(=O)O)c3ccccc3n2C1` (stereo not drawn) [Example 5, 2-(7-((5-fluorobenzo[d]oxazol-2-yl)(methyl)amino)-6,7,8,9-tetrahydropyrido[1,2-a]indol-10-yl)acetic acid], the concentration for half-maximal inhibition (IC50) at hCRTH2 receptor [1] was 16 nM; on hCRTH2 receptor [2], 24 nM.
The corresponding values for `CN(c1nc2cc(F)ccc2s1)C1CCc2c(CC(=O)O)c3ccccc3n2C1` (stereo not drawn) [Example 6, 2-(7-((5-fluorobenzo[d]thiazol-2-yl)(methyl)amino)-6,7,8,9-tetrahydropyrido[1,2-a]indol-10-yl)acetic acid] are 92 nM and 59 nM.
For `CN(c1ncc(F)cn1)C1CCc2c(CC(=O)O)c3cc(F)ccc3n2C1` (stereo not drawn) [Example 7, 2-(2-fluoro-7-((5-fluoropyrimidin-2-yl)(methyl)amino)-6,7,8,9-tetrahydropyrido[1,2-a]indol-10-yl)acetic acid], in that order: 17 nM and 119 nM.
Turning to `CN(c1nc2cc(F)ccc2o1)C1CCc2c(CC(=O)O)c3cc(F)ccc3n2C1` (stereo not drawn) [Example 8, 2-(2-fluoro-7-((5-fluorobenzo[d]oxazol-2-yl)(methyl)amino)-6,7,8,9-tetrahydropyrido[1,2-a]indol-10-yl)acetic acid], the concentration for half-maximal inhibition (IC50) stood at 12 nM on hCRTH2 receptor [1] and 123 nM on hCRTH2 receptor [2].
The corresponding values for `CN(c1ncc(F)cn1)C1CCc2c(CC(=O)O)c3ccc(F)cc3n2C1` (stereo not drawn) [Example 9, 2-(3-fluoro-7-((5-fluoropyrimidin-2-yl)(methyl)amino)-6,7,8,9-tetrahydropyrido[1,2-a]indol-10-yl)acetic acid] are 1 nM and 10 nM.
The corresponding values for `CN(c1nc2cc(F)ccc2o1)C1CCc2c(CC(=O)O)c3ccc(F)cc3n2C1` (stereo not drawn) [Example 10, 2-(3-fluoro-7-((5-fluorobenzo[d]oxazol-2-yl)(methyl)amino)-6,7,8,9-tetrahydropyrido[1,2-a]indol-10-yl)acetic acid] are 0.7 nM and 7 nM.
The molecule `COc1ccc2c(c1)c(CC(=O)O)c1n2CC(N(C)c2ncc(F)cn2)CC1` (stereo not drawn) [Example 11, 2-(7-((5-fluoropyrimidin-2-yl)(methyl)amino)-2-methoxy-6,7,8,9-tetrahydropyrido[1,2-a]indol-10-yl)acetic acid] yielded an IC50 on hCRTH2 receptor [1] of 420 nM.
Same read-out and setting: to `COc1ccc2c(c1)c(CC(=O)O)c1n2CC(N(C)c2nc3cc(F)ccc3o2)CC1` (stereo not drawn) [Example 12, 2-(7-((5-fluorobenzo[d]oxazol-2-yl)(methyl)amino)-2-methoxy-6,7,8,9-tetrahydropyrido[1,2-a]indol-10-yl)acetic acid] belongs 231 nM.
The same measure, in the same setting: to `Cc1ccc2c(c1)c(CC(=O)O)c1n2CC(N(C)c2ncc(F)cn2)CC1` (stereo not drawn) [Example 13, 2-(7-((5-fluoropyrimidin-2-yl)(methyl)amino)-2-methyl-6,7,8,9-tetrahydropyrido[1,2-a]indol-10-yl)acetic acid] belongs 417 nM.
With `Cc1ccc2c(c1)c(CC(=O)O)c1n2CC(N(C)c2nc3cc(F)ccc3o2)CC1` (stereo not drawn) [Example 14, 2-(7-((5-fluorobenzo[d]oxazol-2-yl)(methyl)amino)-2-methyl-6,7,8,9-tetrahydropyrido[1,2-a]indol-10-yl)acetic acid], the IC50 on hCRTH2 receptor [1] was 42 nM; on hCRTH2 receptor [2] it was greater than 1000 nM.
In turn, `CN(c1ncc(F)cn1)C1CCc2c(CC(=O)O)c3cc(Cl)ccc3n2C1` (stereo not drawn) [Example 15, 2-(2-chloro-7-((5-fluoropyrimidin-2-yl)(methyl)amino)-6,7,8,9-tetrahydropyrido[1,2-a]indol-10-yl)acetic acid] registered a half-inhibitory concentration (IC50) at hCRTH2 receptor [1] of 136 nM.
`CN(c1nc2cc(F)ccc2o1)C1CCc2c(CC(=O)O)c3cc(Cl)ccc3n2C1` (stereo not drawn) [Example 16, 2-(2-chloro-7-((5-fluorobenzo[d]oxazol-2-yl)(methyl)amino)-6,7,8,9-tetrahydropyrido[1,2-a]indol-10-yl)acetic acid]: the figures for the half-inhibitory concentration (IC50) on hCRTH2 receptor [1] and at hCRTH2 receptor [2] were 21 nM and greater than 1000 nM, respectively.
The corresponding values for `CN(c1ncc(Cl)cn1)C1CCc2c(CC(=O)O)c3ccc(F)cc3n2C1` (stereo not drawn) [Example 17, 2-(7-((5-chloropyrimidin-2-yl)(methyl)amino)-3-fluoro-6,7,8,9-tetrahydropyrido[1,2-a]indol-10-yl)acetic acid] are 4 nM and 46 nM.
For `CN(c1nc2cc(F)ccc2s1)C1CCc2c(CC(=O)O)c3ccc(F)cc3n2C1` (stereo not drawn) [Example 19, 2-(3-fluoro-7-((5-fluorobenzo[d]thiazol-2-yl)(methyl)amino)-6,7,8,9-tetrahydropyrido[1,2-a]indol-10-yl)acetic acid], the half-inhibitory concentration (IC50) on hCRTH2 receptor [1] amounted to 51 nM.
As to `CN(c1ncc(Cl)cn1)C1CCc2c(CC(=O)O)c3cc(OC(F)(F)F)ccc3n2C1` (stereo not drawn) [Example 23, 2-(7-((5-chloropyrimidin-2-yl)(methyl)amino)-2-(trifluoromethoxy)-6,7,8,9-tetrahydropyrido[1,2-a]indol-10-yl)acetic acid], at hCRTH2 receptor [1], the IC50 was 354 nM.
Same read-out and setting: the same measure for `CN(c1ncc(F)cn1)C1CCc2c(CC(=O)O)c3cc(OC(F)(F)F)ccc3n2C1` (stereo not drawn) [Example 25, 2-(7-((5-fluoropyrimidin-2-yl)(methyl)amino)-2-(trifluoromethoxy)-6,7,8,9-tetrahydropyrido[1,2-a]indol-10-yl)acetic acid]: 141 nM; for `CN(c1nc2ccc(F)cc2s1)C1CCc2c(CC(=O)O)c3cc(OC(F)(F)F)ccc3n2C1` (stereo not drawn) [Example 27, 2-(7-((6-fluorobenzo[d]thiazol-2-yl)(methyl)amino)-2-(trifluoromethoxy)-6,7,8,9-tetrahydropyrido[1,2-a]indol-10-yl)acetic acid]: 812 nM.
The same measure, in the same setting: to `CN(c1nc2cc(F)ccc2o1)C1CCc2c(CC(=O)O)c3cc(OC(F)(F)F)ccc3n2C1` (stereo not drawn) [Example 29, 2-(7-((5-fluorobenzo[d]oxazol-2-yl)(methyl)amino)-2-(trifluoromethoxy)-6,7,8,9-tetrahydropyrido[1,2-a]indol-10-yl)acetic acid] belongs 964 nM; to `Cc1nc(N(C)C2CCc3c(CC(=O)O)c4ccc(Cl)cc4n3C2)c2ccccc2n1` (stereo not drawn) [Example 42, 2-(3-chloro-7-(methyl(2-methylquinazolin-4-yl)amino)-6,7,8,9-tetrahydropyrido[1,2-a]indol-10-yl)acetic acid], 71 nM.

These data come from US9096595B2, “7-(heteroaryl-amino)-6,7,8,9-tetrahydropyrido[1,2-a]indol acetic acid derivatives and their use as prostaglandin D2 receptor modulators” (Actelion Pharmaceuticals Ltd, priority 2011, dated 2015).
